Where two headings read alike, the source gives them in different places. Bridge positions count the residues as written; N and C are the ends. Peptide text beside a SMILES is read from it.
Legend:
E. coli (NCTC 13846) [1] = test: Time-killing kinetic assay; type: cell-based, Escherichia coli; settings: for killing kinetics (in words): MIC, 2 × MIC and 4 × MIC
Procedure: (§1) The time-killing kinetic assay was executed to explore the killing efficiency of the peptides against bacteria. […] The bacteria were cultured using the same method as that employed in the antimicrobial activity determination assay. […] All colonies were counted and recorded after the seeded plates had been incubated at 37 °C for 24 h.

E. coli (BAA 2340) [2] = test: Time-killing kinetic assay; type: cell-based, Escherichia coli
Procedure: as §1

[3] = tested on: E. coli (BAA 2340)-infected waxworms; type: in vivo, Galleria mellonella
Procedure: The larvae of Galleria mellonella were used to evaluate the in vivo antibacterial activity of the peptides. In this assay, the larvae (250 ± 25 mg) (Livefood UK Ltd., Rooks Bridge, UK) of the infected group were infected with 10 μL of a bacterial suspension (1 × 10^7 CFU/mL). After one hour, 10 μL of a peptide solution was injected into each infected larva. As a positive control, infected larvae received 20 mg/kg of rifampicin. The vehicle control consisted of uninfected larvae administered 10 μL of PBS. All larvae were then monitored every 24 h for a duration of five days.

HCT116 = test: Antiproliferation assay (MTT); type: cell-based, human; settings: HCT116, 24 h
Procedure: (§4) The tested human cell lines in this assay included cancerous and non-cancerous cell lines: a human breast cancer cell line (MCF-7), a human lung carcinoma cell line (H838), a human colorectal carcinoma cell line (HCT116), and a human glioblastoma astrocytoma cell line (U251MG); these cell lines were incubated with the peptides at concentrations between 10^−4 to 10^−9 M to study their antiproliferation ability against cancer cells. Also, for the safety evaluation, a human skin keratinocyte cell line (HaCaT) was selected to investigate the cytotoxicity of peptides against normal human cells.
At first, after the stock cells were revived, they were transferred into a 75 mL flask with 10 mL of the corresponding culture medium and cultured for 3–5 days at 37 °C until most cells had attached to the flask wall. Then, the culture medium was removed, and 10 mL of PBS was used to wash the wall twice and discarded. Subsequently, 3–4 mL of a trypsin solution was added for 2–3 min to detach the cells from the container wall and then 8–10 mL of FBS was added to stop the digestion reaction. The cell suspension was transferred into a 15 mL tube and centrifuged. The supernatant was removed and 4 mL of complete growth medium was added to this tube to prepare a stock cell suspension. Approximately 10 µL of a mixture containing an equal volume of trypan blue and cell medium was dropped into a chamber to measure the density of cells under the microscope. Based on the cell density, the cell suspension was diluted with foetal bovine serum (FBS) (Sigma-Aldrich, St. Louis, MO, USA) to the standard cell density (H838, MCF-7: 8 × 10^4; U251MG: 5 × 10^4; HCT116: 2 × 10^5; HaCaT: 2 ×10^5 cells/mL). Then, it was seeded into a 96-well plate at 100 μL/well. After 20–24 h incubation, 100 μL of serum-free medium was used to replace the previous FBS medium and the plate was incubated another 4 h for cell starvation. At the same time, the peptide was dissolved in DMSO at a concentration of 10^−2 M and then mixed with the serum-free medium at working concentrations ranging from 10^−7 to 10^−4 M. Finally, the medium in the 96-well plate was replaced with the peptide solutions. The experimental group used 100 μL of the working concentration peptide solution. The vehicle group consisted of 1 µL of DMSO and 99 µL of serum-free medium. The blank and growth groups both comprised 100 µL of serum-free medium. The loaded 96-well plate was incubated for another 24 h for the treatment. The next day, 10 µL of MTT was added to each well and incubated for 2 h, after which, all media in each well were discarded and substituted with 100 μL of DMSO. After 10 min of shaking, the cell viability in each well was read at a wavelength of 570 nm.

U251MG = test: Antiproliferation assay (MTT); type: cell-based, human; settings: 24 h
Procedure: as §4
(§5) At first, after the stock cells were revived, they were transferred into a 75 mL flask with 10 mL of the corresponding culture medium and cultured for 3–5 days at 37 °C until most cells had attached to the flask wall. Then, the culture medium was removed, and 10 mL of PBS was used to wash the wall twice and discarded. Subsequently, 3–4 mL of a trypsin solution was added for 2–3 min to detach the cells from the container wall and then 8–10 mL of FBS was added to stop the digestion reaction. The cell suspension was transferred into a 15 mL tube and centrifuged. The supernatant was removed and 4 mL of complete growth medium was added to this tube to prepare a stock cell suspension. Approximately 10 µL of a mixture containing an equal volume of trypan blue and cell medium was dropped into a chamber to measure the density of cells under the microscope. Based on the cell density, the cell suspension was diluted with foetal bovine serum (FBS) (Sigma-Aldrich, St. Louis, MO, USA) to the standard cell density (H838, MCF-7: 8 × 10^4; U251MG: 5 × 10^4; HCT116: 2 × 10^5; HaCaT: 2 ×10^5 cells/mL). Then, it was seeded into a 96-well plate at 100 μL/well. After 20–24 h incubation, 100 μL of serum-free medium was used to replace the previous FBS medium and the plate was incubated another 4 h for cell starvation. […] After 10 min of shaking, the cell viability in each well was read at a wavelength of 570 nm.

HaCaT = test: Antiproliferation assay (MTT), normal cell cytotoxicity; type: cell-based, human; settings: HaCaT (normal cell line), 24 h
Procedure: as §4, §5

MCF-7 = settings: MCF-7, 24 h, MTT
Procedure: as §4
(§6) At first, after the stock cells were revived, they were transferred into a 75 mL flask with 10 mL of the corresponding culture medium and cultured for 3–5 days at 37 °C until most cells had attached to the flask wall. Then, the culture medium was removed, and 10 mL of PBS was used to wash the wall twice and discarded. Subsequently, 3–4 mL of a trypsin solution was added for 2–3 min to detach the cells from the container wall and then 8–10 mL of FBS was added to stop the digestion reaction. The cell suspension was transferred into a 15 mL tube and centrifuged. The supernatant was removed and 4 mL of complete growth medium was added to this tube to prepare a stock cell suspension. […] After 10 min of shaking, the cell viability in each well was read at a wavelength of 570 nm.

E. coli (ATCC CRM 8739) = test: SYTOX Green permeability assay; type: cell-based, Escherichia coli; settings: at the MIC
Procedure: (§2) The SYTOX^TM Green Nucleic Acid Stain (ThermoFisher Scientific, Waltham, MA, USA) assay was used to investigate the antibacterial mechanism of the peptides as they cannot cross intact membranes, but can easily penetrate the damaged membranes characteristic of dead cells.
(§3) After being sub-cultured for 2 h, the bacteria were centrifuged at 1000× g for 10 min at 4 °C; then, the culture medium was discarded. […] After a third wash, the bacteria were diluted with the same solution until they reached the logarithmic growth phase in which the OD value just reached 0.70 at a wavelength of 590 nm. […] Finally, 10 μL of SYTOX^TM green nucleic acid stain (5 μM) was added to the plate and the mixture was incubated at 37 °C under dark conditions for another 5 min. […] Bacterial medium with 5% TSB acted as the negative control; bacterial medium treated with a melittin peptide solution (8 μM) was set as the positive control; 5% TSB alone was the blank control.

E. coli (NCTC 13846) [4] = test: SYTOX Green permeability assay; type: cell-based, Escherichia coli; settings: at the MIC
Procedure: as §2, §3

E. coli (BAA 2340) [5] = test: SYTOX Green permeability assay; type: cell-based, Escherichia coli; settings: at the MIC
Procedure: as §2, §3

H838 = test: Antiproliferation assay (MTT); type: cell-based, human; settings: H838, 24 h
Procedure: as §4, §6

[6] = 4 × MIC of peptide, after 120 h of infection

| SMILES | killing kinetics (in words) (E. coli (NCTC 13846) [1]) | time to kill bacteria (E. coli (BAA 2340) [2]; at the MIC) [min] | mortality of infected larvae [3, 6] [%] | IC50 (HCT116) | IC50 (U251MG) | IC50 (HaCaT) | IC50 (MCF-7) | IC50 (H838) | also measured |
| --- | --- | --- | --- | --- | --- | --- | --- | --- | --- |
| CC(C)[C@H](NC(=O)[C@H](C)N)C(=O)N[C@@H](CCCCN)C(=O)N[C@@H](CCCNC(=N)N)C(=O)N[C@@H](C)C(=O)N[C@H](C(=O)N[C@@H](CCCCN)C(=O)N[C@@H](CCCNC(=N)N)C(=O)N[C@@H](Cc1ccccc1)C(=O)N[C@@H](CCCCN)C(=O)N[C@H](C(=O)N[C@@H](Cc1c[nH]cn1)C(=O)N[C@@H](Cc1ccccc1)C(=O)N[C@@H](CCCNC(=N)N)C(=O)N[C@H]1CSSC[C@@H](C(=O)O)NC(=O)[C@H](Cc2ccccc2)NC(=O)[C@H](C)NC(=O)[C@H](C)NC(=O)[C@H](CCCCN)NC1=O)C(C)C)C(C)C [OSTI−2363] (H-AVKRAVKRFKVHFRCKAAFC-OH; disulfide 15-20; N-terminus and C-terminus assumed) | almost instant bactericidal activity | ≤ 5 | 40 | N.I. | N.I. | N.I. | N.I. | – | time to kill bacteria (E. coli (NCTC 13846) [1]; lowest tested concentration (MIC)): ≤ 5 min; killing kinetics (in words) (E. coli (BAA 2340) [2]; MIC, 2 × MIC and 4 × MIC): almost instant bactericidal activity |
| CC[C@H](C)[C@H](NC(=O)[C@H](CC(N)=O)NC(=O)[C@@H](NC(=O)[C@H](C)N)C(C)C)C(=O)N1CCC[C@H]1C(=O)N[C@@H](Cc1ccccc1)C(=O)N[C@@H](CCCCN)C(=O)N[C@H](C(=O)N[C@@H](Cc1c[nH]cn1)C(=O)N[C@@H](Cc1ccccc1)C(=O)N[C@@H](CCCCN)C(=O)N[C@H](C(=O)N[C@@H](Cc1c[nH]cn1)C(=O)N[C@@H](Cc1ccccc1)C(=O)N[C@@H](CCCNC(=N)N)C(=O)N[C@H]1CSSC[C@@H](C(=O)O)NC(=O)[C@H](Cc2ccccc2)NC(=O)[C@H](C)NC(=O)[C@H](C)NC(=O)[C@H](CCCCN)NC1=O)C(C)C)C(C)C [OSTI−2461] (H-AVNIPFKVHFKVHFRCKAAFC-OH; disulfide 16-21; N-terminus and C-terminus assumed) | – | – | – | N.I. | – | N.I. | – | – | – |
| CC[C@H](C)[C@H](NC(=O)[C@@H](N)C(C)C)C(=O)N[C@@H](Cc1ccccc1)C(=O)N[C@@H](CCCCN)C(=O)N[C@H](C(=O)N[C@@H](Cc1ccccc1)C(=O)N[C@@H](Cc1c[nH]c2ccccc12)C(=O)N[C@@H](CCCNC(=N)N)C(=O)N[C@H]1CSSC[C@@H](C(=O)O)NC(=O)[C@H](Cc2ccccc2)NC(=O)[C@H](C)NC(=O)[C@H](C)NC(=O)[C@H](CCCCN)NC1=O)C(C)C [OSTI−1716] (H-VIFKVFWRCKAAFC-OH; disulfide 9-14; N-terminus and C-terminus assumed) | – | – | – | N.I. | – | – | – | – | – |
| CC[C@H](C)[C@H](NC(=O)[C@H](CC(N)=O)NC(=O)[C@@H](NC(=O)[C@H](C)N)C(C)C)C(=O)N1CCC[C@H]1C(=O)N[C@@H](Cc1ccccc1)C(=O)N[C@@H](CCCCN)C(=O)N[C@H](C(=O)N[C@@H](Cc1c[nH]cn1)C(=O)N[C@@H](Cc1ccccc1)C(=O)N[C@@H](CCCNC(=N)N)C(=O)N[C@H]1CSSC[C@@H](C(=O)O)NC(=O)[C@H](Cc2ccccc2)NC(=O)[C@H](C)NC(=O)[C@H](C)NC(=O)[C@H](CCCCN)NC1=O)C(C)C [OSTI−1949] (H-AVNIPFKVHFRCKAAFC-OH; disulfide 12-17; N-terminus and C-terminus assumed) | – | – | – | N.I. | N.I. | N.I. | N.I. | N.I. | uptake of SYTOX Green (E. coli (ATCC CRM 8739)): approximately 50%; uptake of SYTOX Green (E. coli (NCTC 13846) [4]): approximately 50%; uptake of SYTOX Green (E. coli (BAA 2340) [5]): approximately 50% |
| CO[C@H]1/C=C/O[C@@]2(C)Oc3c(C)c(O)c4c(O)c(c(/C=N/N5CCN(C)CC5)c(O)c4c3C2=O)NC(=O)/C(C)=C\C=C\[C@H](C)[C@H](O)[C@@H](C)[C@@H](O)[C@@H](C)[C@H](OC(C)=O)[C@@H]1C [rifampicin, reference compound] | – | – | – | – | – | – | – | – | mortality of infected larvae ([3]; 20 mg/kg, 5 days, positive control): 20% |
| CC[C@H](C)[C@H](N)C(=O)N[C@@H](CCCCN)C(=O)N[C@@H](Cc1ccccc1)C(=O)N[C@@H](CCCCN)C(=O)N[C@H](C(=O)N[C@@H](Cc1c[nH]cn1)C(=O)N[C@@H](Cc1ccccc1)C(=O)N[C@@H](CCCNC(=N)N)C(=O)N[C@H]1CSSC[C@@H](C(=O)O)NC(=O)[C@H](Cc2ccccc2)NC(=O)[C@H](C)NC(=O)[C@H](C)NC(=O)[C@H](CCCCN)NC1=O)C(C)C [OSTI−1696] (H-IKFKVHFRCKAAFC-OH; disulfide 9-14; N-terminus and C-terminus assumed) | almost instant bactericidal activity | ≤ 10 | 20 | N.I. | N.I. | – | – | N.I. | time to kill bacteria (E. coli (BAA 2340) [2]; at 2 × MIC): ≤ 5 min; time to kill bacteria (E. coli (BAA 2340) [2]; at 4 × MIC): ≤ 5 min |
